Patent US9181214B2 (RHIZEN PHARMACEUTICALS SA, priority 2011, dated 2015)

Columns and labels:
human GPR119 = molecular target: T1, human GPR119 (Homo sapiens, UniProt Q8TDV5); assay: In vitro cyclic AMP assay (Cisbio HTRF) in HEK293 cells transfected with human GPR119; assay type: cell-based; details: cAMP; for activation at 10 µM: 1 h, % Induction @ 10 μM; for EC50: Emax varies between 65 to 80%
T1 construct: expressed in transfected cells; host or cells: HEK293 (transient transfection, Lipofectamine 2000)
T1 sequence (Q8TDV5 1-335): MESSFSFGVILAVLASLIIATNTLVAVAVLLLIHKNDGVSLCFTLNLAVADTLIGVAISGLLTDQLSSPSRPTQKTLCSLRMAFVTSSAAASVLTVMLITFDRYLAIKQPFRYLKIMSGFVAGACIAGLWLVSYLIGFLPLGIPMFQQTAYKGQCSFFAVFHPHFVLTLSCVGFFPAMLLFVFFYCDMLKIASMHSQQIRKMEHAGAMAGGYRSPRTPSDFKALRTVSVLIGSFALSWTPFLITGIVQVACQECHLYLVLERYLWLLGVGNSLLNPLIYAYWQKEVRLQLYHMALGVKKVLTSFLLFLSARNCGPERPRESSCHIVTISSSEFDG
Method in brief: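 HEK293 cells transiently transfected with human GPR119 plasmid (or empty vector), replated 24 h later and exposed to compounds for 60 min at room temperature. cAMP measured by HTRF (cAMP-d2/cryptate, 665/620 nm ratio) after 1 h lysis; EC50 from concentration-response curves, also % induction at 10 μM.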

Mouse GPR119 = molecular target: T2, Mouse GPR119 (Mus musculus, UniProt Q7TQP3); assay: In vitro mouse GPR 119 cyclic AMP assay in stably transfected HEK293 cells; assay type: cell-based; details: cAMP, HEK293 cells stably transfected with mouse GPR119
T2 construct: expressed in transfected cells
T2 sequence (Q7TQP3 1-335): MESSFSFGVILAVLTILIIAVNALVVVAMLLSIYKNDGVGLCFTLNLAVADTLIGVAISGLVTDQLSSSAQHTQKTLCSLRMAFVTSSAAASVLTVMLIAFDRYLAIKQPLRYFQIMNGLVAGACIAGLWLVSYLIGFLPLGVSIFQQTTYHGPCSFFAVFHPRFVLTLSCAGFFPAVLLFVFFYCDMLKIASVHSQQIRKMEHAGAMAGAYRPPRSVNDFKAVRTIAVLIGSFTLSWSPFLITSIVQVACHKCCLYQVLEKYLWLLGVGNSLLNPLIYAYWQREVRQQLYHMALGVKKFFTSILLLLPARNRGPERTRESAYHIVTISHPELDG
Procedure: B. In Vitro Mouse GPR 119 Cyclic AMP Assay:
(§1) cAMP measurements were done using a Cisbio dynamic 2 HTRF kit (Cisbio, Bedford, Mass.) according to the manufacturer's protocol. HEK293 Cells were stably transfected with Mouse GPR119 expression plasmid DNA using Lipofectamine 2000 (Invitrogen) and maintained in culture. Cells were harvested, counted and plated at 1000 cells/5 ul in a black 384 welled small volume plate. Cells were treated with desired concentrations of compounds and incubated for 60 min at room temperature. Lysis buffer containing cAMP-d2 and cryptate conjugate were added and incubated for 1 h. HRTF ratio was measured on a microplate reader (BMG Labtech., Germany) at an excitation wavelength of 337 nm and emission wavelengths of 665 and 615 nm with an integration time of 400 μsec. Data were analyzed using Graphpad Prism (Graphpad software; San Diego Calif.) for EC50 determination.

HIT-T15 cells = assay: In vitro HIT-T15 cyclic AMP assay; assay type: cell-based; details: cAMP
Procedure: C. In Vitro HIT-T15 Cyclic AMP Assay:
as §1, with “Briefly, HIT-T15 cells” for “HEK293 Cells were stably transfected with Mouse GPR119 expression plasmid DNA using Lipofectamine 2000 (Invitrogen) and maintained in culture. Cells”, “4000” for “1000”, “ul PBS-BSA solution” for “ul”

C57Bl/6J mice = assay: Oral glucose tolerance test (OGTT) in C57Bl/6J mice; assay type: in vivo; details: single oral dose 1 h before 2.0 g/kg oral glucose, sitagliptin 10 mg/kg, vs vehicle
Procedure: FIG. 1 is a graph of blood glucose over time in C57BI/6J mice according to the oral glucose tolerance test (Biological Assay Procedure E) before and after oral administration of vehicle (control), compound A (Example 64@ 30 mg/kg), or sitagliptin (10 mg/kg @ 10 mg/kg).
FIG. 2 is a graph of blood glucose over time in C57BI/6J mice according to the oral glucose tolerance test (Biological Assay Procedure E) before and after oral administration of vehicle (control), compound […] (Example 42 @ 10 mg/kg), or sitagliptin (10 mg/kg @ 10 mg/kg).
E: Oral Glucose Tolerance Test (OGTT) in C57Bl/6J Mice:
After the quarantine period, 6 hr fasted animals were randomized and divided into various groups depending on their blood glucose levels. Test compounds or standard drug (sitagliptin) was prepared as a suspension in a vehicle consisting of 0.5% methylcellulose and Tween 80 as a suspending agent. The standard drug, Compound A (example-64), Compound B (example-42) or vehicle were administered by oral gavage in a volume of 10 mL/kg. 1 h after the test compounds, standard drug and vehicle administration, blood was sampled from the tail vein of mice at time 0 min (baseline) and at 30, 60, 90 and 120 min after an oral glucose load of 2.0 g/kg of body weight. Food, but not water, was withheld from the cages during the course of experiment. The area under curve (AUC) of experimental animals was compared with that of vehicle-treated control group. The results are shown in FIGS. 1 and 2 and are discussed below.

| activation at 10 µM (human GPR119; Table I) [%] | EC50 (human GPR119; Table I) [nM] | EC50 (Mouse GPR119) [nM] | EC50 (HIT-T15 cells) [nM] | melting point [°C] | activation at 10 µM (human GPR119; Table II) [%] | EC50 (human GPR119; Table II) [nM] | Structure (SMILES) | lowered AUCglucose (C57Bl/6J mice; FIG. 2 study, Compound B 10 mg/kg) [%] | lowered AUCglucose (C57Bl/6J mice; FIG. 1 study, Compound A 30 mg/kg) [%] |
| --- | --- | --- | --- | --- | --- | --- | --- | --- | --- |
| 83 | ≤ 25 | < 25 | < 25 | – | – | – | CC(C)(C)OC(=O)N1CCC(c2nc3cc(-c4ccc(-n5cnnn5)cc4F)ccc3o2)CC1 [EXAMPLE-12, Tert-butyl 4-{5-[2-fluoro-4-(1H-tetrazol-1-yl)phenyl]benzo[d]oxazol-2-yl}piperidine-1-carboxylate] | – | – |
| 78.4 | 25 to 50 | – | – | 116 to 120 | – | – | CNC(=O)c1ccc(-c2ccc3oc(C4CCN(C(=O)OC(C)C)CC4)nc3c2)cc1F [EXAMPLE-42, Isopropyl 4-{5-[3-fluoro-4-(methylcarbamoyl)phenyl]benzo[d]oxazol-2-yl}piperidine-1-carboxylate] | 22 | – |
| – | – | – | – | – | 75 | ≤ 25 | CC(C)OC(=O)N1CCC(c2ccc3oc(-c4ccc(S(C)(=O)=O)cc4F)nc3c2)CC1 [EXAMPLE-64, Isopropyl 4-{2-[2-fluoro-4-(methylsulfonyl)phenyl]benzo[d]oxazol-5-yl}piperidine-1-carboxylate] | – | 24 |
